Consider 33 molecules from patent US20060099712A1, “Correlation of anti-cancer activity of dyes with redox potentials” (Eastman Kodak Company, priority 2004, published 2006).

For the experiment, the system named is CX-1 Human Colon Carcinoma. Kind of experiment: Clonogenic dye screening assay, CX-1 cells (IC50). The conditions noted are these: for CX: CX-1 cells; for CV/C: selectivity ratio, value of 1 where dye inactive; for CX (IC50 in the CX-1 cell line): 3 hrs treatment, colonies after 7-10 days, unit from method b117-118; for CV/CX (selectivity, kill ratio): ratio of IC50 in normal CV-1 line to IC50 in carcinoma CX-1 line. Also noted: CX: unit not given here. It is filed as cell-based. The text has this: CX-1 is a cancerous human colon adenocarcinoma cell line. CV-1 is a non-cancerous control, which is a kidney epithelial cell line from an African green monkey. IC50 is the dye concentration at which 50% of the cells are killed. Selectivity or kill ratio is defined as the ratio of […] at IC50 for both CX-1 and CV-1. A ratio with a high number indicates a high selectivity.
The dyes were screened in two cell lines. CX-1 is a human colon adenocarcinoma cell line. CV-1 is a kidney epithelial cell line from an African green monkey. CV-1 was used as a reference because no normal human epithelial cell line is available for clonogenic assay.
In the initial screen, dyes were examined at six different concentrations to generate a dose response curve. An IC50 value, the concentration at which 50% of the cells are killed, was then calculated. Initially, a dye concentration of 1.0 μg/mL was the highest examined for the CX-1 cell line and 0.005 μg/mL was the lower limit. The corresponding limits on the CV-1 cell line were […].
The screening procedure used a response curve that was determined from eight dye concentrations. The upper and lower limits of CX-1 were 0.32 and 0.0015 μg/mL, respectively, and the corresponding revised limits on CV-1 were 3.2 and 0.025 μg/mL. The screening results were reported by assigning an IC50 value to each dye for the CV-1 and CX-1 cell lines. These values will be referred to herein simply as CV and CX. The most desirable result would be to have a dye that was highly toxic to carcinoma cells but nontoxic to ‘normal’ cells. One measure of this type of selectivity is the ratio of the IC50's in the normal cell line to that in the carcinoma line, CV/CX.
Compounds are screened via an in vitro assay. CV-1 and CX-1 cells are seeded into separate assay plates. The plates are treated with varying concentrations of test compounds, rinsed, and colonies allowed to grow. IC50's are determined and drugs evaluated based on their selectivity and toxicity. Assay Steps: • I. Seeding Cells • II. Weighing • III. Preparation of Solution • IV. Treatment • V. Rinsing and Feeding • VI. Fixing • VII. IC50 Determination I. Seeding Cells
The cells should be seeded 16-30 hours before treatment. The media for CV-1 cells is DME+5% calf serum +5% Nuserum. The media for CX-1 cells is RPMI/DME (50/50)+5% calf serum +5% Nuserum.
(c) number of cells based on 2000 CX-1 cells/well and 1000 CV-1 cells/well. NOTE: Always make enough cell suspension for 1 extra plate to allow for volume loss during transfers.
• (a) For CV-1: 256 ug/ml-256 ul of 1 mg/ml stock +744 ul DMSO • (b) For CX-1: 25.6 ug/ml-100 ul of 256 ug/ml+900 ul DMSO IV. Treatment • 1. Each plate is treated with 4 test compounds, one positive control and one negative control. • 2. Serial dilutions of the compounds are made in the following way:
2 multi-well pipetters are used. One is set for 10 ul and one for 200 ul. Each is equipped with 6 tips spaced such that they fit into the 6 rows of a plate. 390 ul of media is added to the first column of each plate. 10 ul each of 4 compound solutions, a positive and a negative control are taken up and put into the first column of wells. The 200 ul pipetter is then placed in the same wells, pipetted up and down 3 times and two 200 ul aliquots are moved to the next column of wells. This column is pipetted up and down 3 times and 400 ul moved to column 3, etc. The final 400 ul excess from column 8 is discarded.
• 3. Label the plates along the front, each row −1 compound. • 4. Incubate the plates at 37° C. for 3 hrs. V. Rinsing • 1. Prepare several bottles of CX-1 and CV-1 media. • 2. Check for precipitate in first column of each plate and note. • 3. Starting with the plates treated first, rinse several plates at a time by aspirating the treatments and refilling each well with 0.5-1.0 ml of the rinse media. Aspirate and refill 2 more times for a total of 3 rinses. • 4.

The mark [1] stands for this setting: Table XXI, oxathiacarbocyanine nitrogen substituents.
The mark [2] stands for this setting: Table XX, thiacarbocyanine nitrogen substituents.
The mark [3] stands for this setting: Table XX, ratio given a value of 1 where dye inactive.
Setting [4] is: Table XVII, benzotellurazole derivatives.
Setting [5] is: Table XVII, selectivity ratio of IC50 values.
The mark [6] stands for this setting: Table XVI, selectivity ratio of IC50 values.

As to `CCN1/C(=C/C=C/c2sc3ccccc3[n+]2CCNS(=O)(=O)c2ccc(C)cc2)Oc2ccccc21` [R1=CCNS02Ph-4C, R2=Et], the CX under setting [1] is on record as 0.3. Moreover, where the note is “Table XXI”, the CV/C is on record as 26.7. Consider `OCCN1/C(=C/C=C/c2sc3ccccc3[n+]2CCO)Sc2ccccc21` [R1=CCOH, R2=CCOH], for which the CX under setting [2] was more than 0.32. Moreover, the CV/CX under setting [3] is 1.0. Under setting [1], `CCN1/C(=C/C=C/c2sc3ccccc3[n+]2CCS(=O)(=O)CC)Oc2ccccc21` [R1=CCS02CC, R2=Et] had a CX of 0.3. Further, the CV/C (Table XXI) is reported as more than 33.3. On to `CSCCN1C(=CC=Cc2sc3ccccc3[n+]2CCSC)Sc2ccccc21` [R1=CCSMe, R2=CCSMe], for which the CX under setting [2] stood at 0.015. Besides, the CV/CX under setting [3] was found to be 12.0. The molecule `CC[n+]1c(/C=C/C=C2\Oc3ccccc3N2CC(=O)c2ccccc2)sc2ccccc21` [R1=Et, R2=C(C═O)Ph] registered a CX under setting [1] of 0.8. Moreover, for the setting “Table XXI”, the CV/C was 3.7.

For the molecule `CC[n+]1c(/C=C/C=C2\Oc3ccccc3N2CC(F)(F)F)sc2ccccc21` [R1=Et, R2=CC(F)3], the CX under setting [1] came to 0.1. For the same molecule, the CV/C (Table XXI) turned out to be 50.0. With `CCN1/C(=C/C(C)=C/c2[te]c3ccc(C)cc3[n+]2CC)Sc2ccc(Cl)cc21` [R=E, X=S, Z1=5-Me, R2=Me, Z2=5-Cl], the CX under setting [4] was determined as 0.10. In addition, under setting [5], the CV/CX is 10.0. On to `CCN1/C(=C/C(C)=C/c2[te]c3ccc(C)cc3[n+]2CC)Sc2ccc(OC)cc21` [R=E, X=S, Z1=5-Me, R2=Me, Z2=5-MeO], for which, under setting [4], the CX amounted to 0.03. In addition, under setting [5], the CV/CX was 33.3. `CCN1/C(=C/C(C)=C/c2[te]c3ccc(C)cc3[n+]2CC)Sc2ccccc21` [R=E, X=S, Z1=5-Me, R2=Me, Z2=H] displayed a CX under setting [4] of 0.03. Moreover, the CV/CX under setting [5] turned out to be 26.6. In the case of `CCN1/C(=C/C(=C/c2[te]c3ccc(C)cc3[n+]2CC)c2ccccc2)Sc2ccccc21` [R=E, X=S, Z1=5-Me, R2=Ph, Z2=H], the CX under setting [4] was found to be 0.3. Also, the CV/CX under setting [5] is given as 30.0. For `CCN1/C(=C/C(=C/c2[te]c3ccc(OC)cc3[n+]2CC)c2ccccc2)Sc2ccccc21` [R=E, X=S, Z1=5-MeO, R2=Ph, Z2=H], in that order: 0.3 and 26.6. The matching figures for `CCN1C(=CC=Cc2[te]c3ccc(C)cc3[n+]2CC)[Te]c2ccc(C)cc21` [R=E, X=Te, Z1=5-Me, R2=H, Z2=5-Me]: 0.052 and 7.7. For `CN1/C(=C/C=C/c2[te]c3ccc(O)cc3[n+]2C)[Te]c2ccc(O)cc21` [R=M, X=Te, Z1=5-OH, R2=H, Z2=5-OH], the CV/CX under setting [5] was determined as 7.6.

`CN1C(=CC=Cc2[te]c3ccccc3[n+]2C)[Te]c2ccccc21` [R=M, X=Te, Z1=H, R2=H, Z2=H]: under setting [4], the CX is on record as 0.30. In addition, the CV/CX under setting [5] was 16.7. For `CCN1/C(=C/C=C/c2[te]c3cc(OC)c(OC)cc3[n+]2C)Sc2ccccc21` [R=M/E, X=S, Z1=5,6-MeO, R2=H, Z2=H], in that order: 0.5 and 2.0. Where the note is “Table XVI, unsymmetrical dyes”, `CCN1C(=CC=Cc2sc3ccccc3[n+]2CC)N(CC)c2cc(Cl)c(Cl)cc21` [benzimidazole(5,6-Cl)] came in with a CX of 0.260. For the same molecule, the CV/CX under setting [6] is reported as 0.8. For the setting “Table XVI, unsymmetrical dyes”, `CCN1/C(=C/C=C/c2sc3c([n+]2C)CCCC3)Sc2ccccc21.[I-]` [benzothiazole(4,5,6,7-H)] returned a CX of less than 0.005. In addition, the CV/CX under setting [6] was more than 60.0. Regarding `O=C(C[n+]1c(/C=C/C=C2/Nc3ccccc3S2)sc2ccccc21)N1CCOCC1` [drawing 36|CC(═O)morpholino|H], the “CX (IC50 in the CX-1 cell line)” value was more than 0.32 µg/mL and the “CV/CX (selectivity, kill ratio)” value was determined as 10.0.

As for `CCSC(CCN1/C(=C/C=C/c2sc3ccccc3[n+]2CCC(SCC)SCC)Sc2ccccc21)SCC` [drawing 36|CCC(SEt)2|CCC(SEt)2], the “CX (IC50 in the CX-1 cell line)” value is more than 0.32 µg/mL and the “CV/CX (selectivity, kill ratio)” value is recorded as less than 4.1. For `OCCN1C(=CC=Cc2sc3ccccc3[n+]2CCO)Sc2ccccc21` [drawing 36|CCOH|CCOH], the “CX (IC50 in the CX-1 cell line)” value is more than 0.32 µg/mL and the “CV/CX (selectivity, kill ratio)” value is 10.0. The “CV/CX (selectivity, kill ratio)” value (listed as N,N′-di(2-hydroxyethyl) dye) was “not active”. Turning to `CSCCN1/C(=C\C=C\c2sc3ccccc3[n+]2CCSC)Sc2ccccc21` [drawing 36|CCSMe|CCSMe], the “CX (IC50 in the CX-1 cell line)” value is 0.015 µg/mL and the “CV/CX (selectivity, kill ratio)” value is reported as 12. For `C=C(Br)C[n+]1c(/C=C/C=C2\Oc3ccccc3N2CC)sc2ccccc21` [drawing 37|CC(Br)═C|Et], the “CX (IC50 in the CX-1 cell line)” value amounted to 0.03 µg/mL and the “CV/CX (selectivity, kill ratio)” value was 33.3. Consider `CCN1/C(=C/C=C/c2sc3ccccc3[n+]2CC(N)=O)Oc2ccccc21` [drawing 37|CC(═O)N|Et], for which the “CV/CX (selectivity, kill ratio)” value is on record as more than 10.0. `CCN1/C(=C/C=C/c2sc3ccccc3[n+]2CC(=O)c2ccc(O)cc2O)Oc2ccccc21` [drawing 37|CC(═O)Ph-2,4-OH|Et]: the “CX (IC50 in the CX-1 cell line)” value came to 0.3 µg/mL and the “CV/CX (selectivity, kill ratio)” value is more than 33.3. In the case of `CCN1/C(=C\C=C\c2sc3ccccc3[n+]2CC(=O)c2ccc(O)c(O)c2)Oc2ccccc21` [drawing 37|CC(═O)Ph-3,4-OH|Et], the “CX (IC50 in the CX-1 cell line)” value is more than 1.0 µg/mL and the “CV/CX (selectivity, kill ratio)” value came to 10.0. For `CCN1/C(=C/C=C/c2sc3ccccc3[n+]2CC(=O)c2ccccc2)Oc2ccccc21` [drawing 37|CC(═O)Ph|Et], in that order: 0.3 µg/mL and 10.0. For `CCN1/C(=C/C=C/c2sc3ccccc3[n+]2CC(=O)N2CCOCC2)Oc2ccccc21` [drawing 37|CC(═O)morpholino|Et], the “CX (IC50 in the CX-1 cell line)” value is more than 1.0 µg/mL and the “CV/CX (selectivity, kill ratio)” value is listed as 10.0. As for `CCN1/C(=C/C=C/c2sc3ccccc3[n+]2CCC(=O)N(c2ccccc2)C(C)C)Oc2ccccc21` [drawing 37|CCC(═0)N(iPr)Ph|Et], the “CX (IC50 in the CX-1 cell line)” value came to 0.03 µg/mL and the “CV/CX (selectivity, kill ratio)” value is recorded as 26.7. For the molecule `CCC=NNC(N)=S` [drawing 37|CCC═NNC(═S)N|Et], the “CX (IC50 in the CX-1 cell line)” value was more than 1.0 µg/mL and the “CV/CX (selectivity, kill ratio)” value was found to be 10.0. Consider `CCN1/C(=C/C=C/c2sc3ccccc3[n+]2CCC=NNS(=O)(=O)c2ccc(C)cc2)Oc2ccccc21` [drawing 37|CCC═NNSO2Ph-4C|Et], for which the “CX (IC50 in the CX-1 cell line)” value was 0.3 µg/mL and the “CV/CX (selectivity, kill ratio)” value was determined as 33.3. The matching figures for `CCN1/C(=C/C=C/c2sc3ccccc3[n+]2CCC=O)Oc2ccccc21` [drawing 37|CCC═O|Et]: 0.1 µg/mL and 50.0. Turning to `CCN1/C(=C/C=C/c2sc3ccccc3[n+]2CCNS(=O)(=O)c2ccc(C)cc2)Oc2ccccc21` [drawing 37|CCNSO2Ph-4C|Et], the “CX (IC50 in the CX-1 cell line)” value was found to be 0.3 µg/mL and the “CV/CX (selectivity, kill ratio)” value worked out at 26.7. As to `CCN1/C(=C/C=C/c2sc3ccccc3[n+]2CCS(=O)(=O)CC)Oc2ccccc21` [drawing 37|CCSO2CC|Et], the “CX (IC50 in the CX-1 cell line)” value was determined as 0.3 µg/mL and the “CV/CX (selectivity, kill ratio)” value was more than 33.3.
